Assay results from ChEMBL document CHEMBL4823252 (J Med Chem, 2021).
One block for each molecule: values may come before it. Calls of active or inactive are those of the source. No cut-off for these calls is given here.

How the values were obtained:
MV4-11 [1] = assay: Antitumor activity against human MV4-11 cells xenografted in mouse assessed as tumor growth inhibition at 5 mg/kg, po administered for 20 days measured once every 2 days relative to control; format: functional; conditions: MV4-11, po, 480 h, time 20 day, read-out: TGI
[2] = target: Receptor-type tyrosine-protein kinase FLT3 (Homo sapiens, UniProt P36888, ITD); assay: Inhibition of FLT3 ITD mutant (unknown origin) incubated for 30 mins in presence of ATP by mobility shift assay
[3] = target: Receptor-type tyrosine-protein kinase FLT3 (Homo sapiens, UniProt P36888, D835Y); assay: Inhibition of FLT3 D835Y mutant (unknown origin) incubated for 30 mins in presence of ATP by mobility shift assay
[4] = target: Platelet-derived growth factor receptor beta (Homo sapiens, UniProt P09619); assay: Inhibition of PDGFRbeta (unknown origin) incubated for 30 mins in presence of ATP by mobility shift assay
[5] = target: Vascular endothelial growth factor receptor 1 (Homo sapiens, UniProt P17948); assay: Inhibition of VEGFR1 (unknown origin) incubated for 30 mins in presence of ATP by mobility shift assay
[6] = target: Vascular endothelial growth factor receptor 2 (Homo sapiens, UniProt P35968); assay: Inhibition of VEGFR2 (unknown origin) incubated for 30 mins in presence of ATP by mobility shift assay
[7] = system: Receptor-type tyrosine-protein kinase FLT3 (Homo sapiens), P36888 [UNDEFINED MUTATION]; assay: Binding affinity to FLT3 ITD mutant (unknown origin) at 1000 nM relative to control
[8] = system: Receptor-type tyrosine-protein kinase FLT3 (Homo sapiens), P36888 [D835H]; assay: Binding affinity to FLT3 D835H mutant (unknown origin) at 1000 nM relative to control
[9] = system: Receptor-type tyrosine-protein kinase FLT3 (Homo sapiens), P36888 [K663Q]; assay: Binding affinity to FLT3 K663Q mutant (unknown origin) at 1000 nM relative to control
[10] = system: Receptor-type tyrosine-protein kinase FLT3 (Homo sapiens), P36888 [N841I]; assay: Binding affinity to FLT3 N841I mutant (unknown origin) at 1000 nM relative to control
Homo sapiens = species on record: Homo sapiens; assay: Binding affinity to FLT3 ITD F691L mutant (unknown origin) at 1000 nM relative to control
HL-60 = assay: Antiproliferative activity against human HL-60 cells measured after 72 hrs by CCK8 assay; format: functional, cell-based; conditions: HL-60, 72 h
HT-29 = assay: Antiproliferative activity against human HT-29 cells measured after 72 hrs by CCK8 assay; format: functional, cell-based; conditions: HT-29, 72 h
HeLa = assay: Antiproliferative activity against human HeLa cells measured after 72 hrs by CCK8 assay; format: functional, cell-based
MOLM-13 [11] = assay: Antiproliferative activity against human sunitinib-resistant MOLM-13 cells at 12 nM incubated for 72 hrs by CCK8 assay relative to control; format: functional
MV4-11 [12] = assay: Induction of cell cycle arrest in human MV4-11 cells assessed as accumulation at sub-G1 phase at 10 nM incubated for 24 hrs by flow cytometry (reference value: […]%); format: functional
MV4-11 [13] = assay: Induction of cell cycle arrest in human MV4-11 cells assessed as accumulation at sub-G1 phase at 100 nM incubated for 24 hrs by flow cytometry (reference value: […]%); format: functional
MV4-11 [14] = assay: Induction of apoptosis in human MV4-11 cells assessed as late apoptotic cells at 100 nM incubated for 24 hrs by flow cytometry (reference value: 0.58%); format: functional
MOLM-13 [15] = assay: Induction of apoptosis in human MOLM-13 cells assessed as viable cells at 10 nM incubated for 24 hrs by flow cytometry (reference value: 92.83%); format: functional; conditions: read-out: Activity
MOLM-13 [16] = assay: Induction of apoptosis in human MOLM-13 cells incubated for 24 hrs by flow cytometry; format: functional, cell-based
[17] = target: Receptor-type tyrosine-protein kinase FLT3 (Homo sapiens) (UniProt P36888); assay: Inhibition of FLT3 in human MV4-11 cells assessed as reduction in STAT5 phosphorylation at 10 uM incubated for 2 hrs by Western blot analysis; format: cell-based
[18] = target: Receptor-type tyrosine-protein kinase FLT3 (Homo sapiens) (UniProt P36888); assay: Inhibition of FLT3 in human MOLM-13 cells assessed as reduction in STAT5 phosphorylation incubated for 2 hrs by Western blot analysis; format: cell-based
[19] = target: Receptor-type tyrosine-protein kinase FLT3 (Homo sapiens) (UniProt P36888); assay: Inhibition of FLT3 in human MOLM-13 cells assessed as reduction in ERK phosphorylation incubated for 2 hrs by Western blot analysis; format: cell-based
[20] = AUC (0 to last) in Sprague-Dawley rat at 10 mg/kg, po; format: ADME, organism-based; set-up: route oral, time 0 - last, dose 10 mg/kg; conditions: in vivo
[21] = Half life in Sprague-Dawley rat at 10 mg/kg, po; format: ADME, organism-based; conditions: in vivo
MV4-11 [22] = assay: Antitumor activity against human MV4-11 cells xenografted in po dosed mouse assessed as tumor growth inhibition administered for 20 days measured once every 2 days; format: functional, organism-based; conditions: time 20.0 day
MOLM-13 [23] = assay: Antitumor activity against human MOLM-13 cells xenografted in po dosed mouse assessed as tumor growth inhibition administered for 20 days measured once every 2 days; format: functional, organism-based; conditions: time 20.0 day
MV4-11 [24] = assay: Antitumor activity against human MV4-11 cells xenografted in mouse assessed as tumor growth inhibition at 10 mg/kg, po administered for 20 days measured once every 2 days relative to control; format: functional; conditions: MV4-11, po, 480 h, time 20 day, read-out: TGI
MOLM-13 [25] = assay: Antitumor activity against human MOLM-13 cells xenografted in mouse assessed as tumor regression at 40 mg/kg, po administered for 16 days measured on day 4 relative to control; format: functional; conditions: time 16 day
Mus musculus = assay: Induction of tumor recurrence mouse xenografted with human MOLM-13 cells at 10 to 40 mg/kg, po; format: functional, organism-based; conditions: dose 10-40 mg/kg
[26] = Toxicity in mouse xenografted with human MV4-11 cells assessed as effect on liver at 2.5 to 10 mg/kg, po administered for 16 days by hematoxylin and eosin staining assay; format: organism-based; conditions: in vivo, 384 h, dose 2.5-10 mg/kg, time 16 day
[27] = Toxicity in mouse xenografted with human MV4-11 cells assessed as effect on spleen at 2.5 to 10 mg/kg, po administered for 16 days by hematoxylin and eosin staining assay; format: organism-based; conditions: in vivo, 384 h, dose 2.5-10 mg/kg, time 16 day
[28] = Toxicity in mouse xenografted with human MV4-11 cells assessed as effect on kidney at 2.5 to 10 mg/kg, po administered for 16 days by hematoxylin and eosin staining assay; format: organism-based; conditions: in vivo, 384 h, dose 2.5-10 mg/kg, time 16 day
[29] = Toxicity in mouse xenografted with human MOLM-13 cells assessed as effect on kidney at 10 to 40 mg/kg, po administered for 20 days by hematoxylin and eosin staining assay; format: organism-based; conditions: in vivo, 480 h, dose 10-40 mg/kg, time 20 day
[30] = Toxicity in mouse xenografted with human MOLM-13 cells assessed as effect on heart at 10 to 40 mg/kg, po administered for 20 days by hematoxylin and eosin staining assay; format: organism-based; conditions: in vivo, 480 h, dose 10-40 mg/kg, time 20 day
[31] = Toxicity in mouse xenografted with human MOLM-13 cells assessed as effect on lung at 10 to 40 mg/kg, po administered for 20 days by hematoxylin and eosin staining assay; format: organism-based; conditions: in vivo, 480 h, dose 10-40 mg/kg, time 20 day
[32] = Toxicity in mouse xenografted with human MOLM-13 cells assessed as effect on liver at 10 to 40 mg/kg, po administered for 20 days by hematoxylin and eosin staining assay; format: organism-based; conditions: in vivo, 480 h, dose 10-40 mg/kg, time 20 day

Chain of Vascular endothelial growth factor receptor 1 (P17948 whole entry): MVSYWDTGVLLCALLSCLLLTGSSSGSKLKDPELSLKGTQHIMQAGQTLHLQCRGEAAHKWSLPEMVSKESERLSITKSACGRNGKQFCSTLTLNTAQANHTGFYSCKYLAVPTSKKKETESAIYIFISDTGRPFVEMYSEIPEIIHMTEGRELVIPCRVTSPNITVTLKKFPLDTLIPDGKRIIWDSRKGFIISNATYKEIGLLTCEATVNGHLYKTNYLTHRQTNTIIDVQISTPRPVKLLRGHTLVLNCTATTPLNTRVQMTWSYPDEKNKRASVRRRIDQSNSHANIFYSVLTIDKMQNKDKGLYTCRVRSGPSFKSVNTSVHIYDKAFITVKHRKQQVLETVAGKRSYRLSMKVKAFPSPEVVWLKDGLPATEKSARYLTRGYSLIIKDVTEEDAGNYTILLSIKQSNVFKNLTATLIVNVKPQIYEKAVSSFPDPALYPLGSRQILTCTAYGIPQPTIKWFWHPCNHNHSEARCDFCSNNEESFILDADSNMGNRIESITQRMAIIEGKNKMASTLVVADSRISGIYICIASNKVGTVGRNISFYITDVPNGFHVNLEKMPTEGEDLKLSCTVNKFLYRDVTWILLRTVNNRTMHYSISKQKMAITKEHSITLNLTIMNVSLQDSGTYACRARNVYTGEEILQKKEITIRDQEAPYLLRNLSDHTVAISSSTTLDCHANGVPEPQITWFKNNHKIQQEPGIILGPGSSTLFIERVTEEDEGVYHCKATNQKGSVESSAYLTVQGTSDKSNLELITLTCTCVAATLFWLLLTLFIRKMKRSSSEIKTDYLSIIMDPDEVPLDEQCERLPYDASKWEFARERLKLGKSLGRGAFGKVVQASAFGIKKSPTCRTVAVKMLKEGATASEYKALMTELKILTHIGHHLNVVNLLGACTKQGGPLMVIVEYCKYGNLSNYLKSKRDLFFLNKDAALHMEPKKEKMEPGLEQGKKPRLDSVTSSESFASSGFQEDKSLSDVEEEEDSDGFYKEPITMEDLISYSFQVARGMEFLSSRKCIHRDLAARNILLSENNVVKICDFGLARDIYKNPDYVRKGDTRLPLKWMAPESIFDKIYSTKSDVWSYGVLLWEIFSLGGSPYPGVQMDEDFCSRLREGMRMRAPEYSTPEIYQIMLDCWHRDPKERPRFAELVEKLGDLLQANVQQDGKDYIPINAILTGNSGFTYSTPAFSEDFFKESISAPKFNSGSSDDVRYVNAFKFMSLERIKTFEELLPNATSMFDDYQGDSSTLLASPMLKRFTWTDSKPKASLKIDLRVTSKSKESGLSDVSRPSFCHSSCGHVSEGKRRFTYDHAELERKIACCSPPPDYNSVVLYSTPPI
Chain of Platelet-derived growth factor receptor beta (P09619 whole entry): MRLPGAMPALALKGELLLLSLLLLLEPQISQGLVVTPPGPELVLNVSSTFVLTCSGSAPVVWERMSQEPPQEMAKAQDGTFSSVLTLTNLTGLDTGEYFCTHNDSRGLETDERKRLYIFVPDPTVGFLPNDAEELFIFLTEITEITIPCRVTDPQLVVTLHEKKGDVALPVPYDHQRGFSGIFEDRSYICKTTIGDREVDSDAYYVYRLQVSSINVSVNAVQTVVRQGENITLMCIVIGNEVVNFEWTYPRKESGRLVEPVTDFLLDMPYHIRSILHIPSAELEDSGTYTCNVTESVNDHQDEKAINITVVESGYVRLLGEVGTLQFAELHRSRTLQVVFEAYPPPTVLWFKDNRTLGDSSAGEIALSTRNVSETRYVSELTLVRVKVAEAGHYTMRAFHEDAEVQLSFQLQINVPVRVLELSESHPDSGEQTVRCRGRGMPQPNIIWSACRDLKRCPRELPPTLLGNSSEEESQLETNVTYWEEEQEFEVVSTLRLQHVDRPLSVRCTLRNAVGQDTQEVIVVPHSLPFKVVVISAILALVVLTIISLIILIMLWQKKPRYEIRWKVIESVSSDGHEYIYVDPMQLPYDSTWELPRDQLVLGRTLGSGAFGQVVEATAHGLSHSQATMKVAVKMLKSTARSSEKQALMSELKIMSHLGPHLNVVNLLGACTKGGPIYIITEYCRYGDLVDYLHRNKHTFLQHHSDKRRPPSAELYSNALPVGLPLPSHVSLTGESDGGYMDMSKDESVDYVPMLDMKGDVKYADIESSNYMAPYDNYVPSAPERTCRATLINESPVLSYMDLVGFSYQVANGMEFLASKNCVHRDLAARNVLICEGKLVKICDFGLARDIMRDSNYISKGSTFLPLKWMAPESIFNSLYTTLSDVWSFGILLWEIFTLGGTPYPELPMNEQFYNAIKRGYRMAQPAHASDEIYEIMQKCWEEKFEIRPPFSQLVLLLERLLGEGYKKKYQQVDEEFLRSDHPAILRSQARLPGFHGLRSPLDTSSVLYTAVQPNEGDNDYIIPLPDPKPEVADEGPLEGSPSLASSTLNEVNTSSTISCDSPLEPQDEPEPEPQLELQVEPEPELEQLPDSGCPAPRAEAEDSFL
Chain of Vascular endothelial growth factor receptor 2 (P35968 whole entry): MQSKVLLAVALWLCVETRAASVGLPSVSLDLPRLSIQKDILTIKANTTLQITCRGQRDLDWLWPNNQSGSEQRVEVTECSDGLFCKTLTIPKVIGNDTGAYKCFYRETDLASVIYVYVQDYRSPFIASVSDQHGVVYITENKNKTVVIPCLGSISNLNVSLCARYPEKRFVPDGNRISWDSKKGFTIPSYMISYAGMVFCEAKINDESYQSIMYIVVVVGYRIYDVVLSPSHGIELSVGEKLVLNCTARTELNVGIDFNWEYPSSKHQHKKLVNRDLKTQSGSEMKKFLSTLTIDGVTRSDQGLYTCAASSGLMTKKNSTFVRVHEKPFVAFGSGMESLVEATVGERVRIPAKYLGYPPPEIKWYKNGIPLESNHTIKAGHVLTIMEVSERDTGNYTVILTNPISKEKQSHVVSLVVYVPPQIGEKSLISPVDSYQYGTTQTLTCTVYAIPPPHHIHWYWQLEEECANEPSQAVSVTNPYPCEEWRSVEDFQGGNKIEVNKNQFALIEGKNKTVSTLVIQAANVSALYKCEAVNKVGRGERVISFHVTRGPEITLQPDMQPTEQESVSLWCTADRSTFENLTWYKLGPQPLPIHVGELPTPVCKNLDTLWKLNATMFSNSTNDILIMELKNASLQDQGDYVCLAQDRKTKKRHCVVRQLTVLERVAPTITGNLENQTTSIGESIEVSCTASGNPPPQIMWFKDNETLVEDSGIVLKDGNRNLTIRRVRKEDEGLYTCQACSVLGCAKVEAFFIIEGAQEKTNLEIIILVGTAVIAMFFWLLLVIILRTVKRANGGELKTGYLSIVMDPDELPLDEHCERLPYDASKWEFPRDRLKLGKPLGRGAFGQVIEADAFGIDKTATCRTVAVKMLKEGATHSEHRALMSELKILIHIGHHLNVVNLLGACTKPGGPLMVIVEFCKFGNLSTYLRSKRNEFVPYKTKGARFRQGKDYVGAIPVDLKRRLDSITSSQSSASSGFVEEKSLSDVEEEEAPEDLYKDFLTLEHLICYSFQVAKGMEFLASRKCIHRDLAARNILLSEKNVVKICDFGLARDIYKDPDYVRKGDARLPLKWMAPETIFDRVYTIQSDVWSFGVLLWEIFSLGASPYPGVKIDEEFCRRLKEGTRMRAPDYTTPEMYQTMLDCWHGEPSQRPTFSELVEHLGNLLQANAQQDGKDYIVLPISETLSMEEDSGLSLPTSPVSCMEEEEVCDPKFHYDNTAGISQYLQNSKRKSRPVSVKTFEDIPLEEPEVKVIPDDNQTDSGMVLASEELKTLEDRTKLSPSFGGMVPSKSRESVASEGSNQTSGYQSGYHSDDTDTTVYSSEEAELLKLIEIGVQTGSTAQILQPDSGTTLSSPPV

SMILES: CCN(CC)CCNC(=O)c1c(C)[nH]c(/C=C2\C(=O)Nc3ccc(F)cc32)c1C [SUNITINIB]
inhibition in vivo at 5 mg/kg (MV4-11 [1]): 29.9%

IC50 [2]: 0.8 nM
IC50 [3]: 1.9 nM
IC50 [4]: 41.8 nM
IC50 [5]: 120 nM
IC50 [6]: 137 nM
Activity [7]: Active
Activity [8]: Active
Activity [9]: Active
Activity [10]: Active
Activity (Homo sapiens): Active
IC50 (HL-60): 4720 nM
IC50 (HT-29): 1540 nM
IC50 (HeLa): 1960 nM
Activity [17]: Active
Activity [18]: Dose-Dependent Effect
Activity [19]: Dose-Dependent Effect
AUC(0-t) [20]: 21200 ng·h/mL
half-life [21]: 6.1 h
SMILES: Cc1c(NC(=O)CCN2CCCC2)c[nH]c1/C=C1\C(=O)Nc2ccc(F)cc21
Activity (MOLM-13 [11]): -2.6%
Activity (MV4-11 [12]): 28.68%
Activity (MV4-11 [13]): 30.54%
Activity (MV4-11 [14]): 8.73%
viability at 0.01 µM (MOLM-13 [15]): 62.3%
Activity (MOLM-13 [16]): Dose-Dependent Effect
Activity (MV4-11 [22]): Dose-Dependent Effect
Activity (MOLM-13 [23]): Dose-Dependent Effect
inhibition in vivo at 10 mg/kg (MV4-11 [24]): 93.4%
Activity (MOLM-13 [25]): 100%
Activity (Mus musculus): inactive
Activity [26]: Non-Toxic
Activity [27]: Non-Toxic
Activity [28]: Non-Toxic
Activity [29]: Non-Toxic
Activity [30]: Non-Toxic
Activity [31]: Non-Toxic
Activity [32]: Non-Toxic
